Measured values from paper PMC10976043, “Function and Mechanism of Antiviral Wasp Venom Peptide Protopolybia-MP III and Its Derivatives against HSV-1” (Toxins, 2024).
Ends that are not written are not given here.

Legend:
[1] = system: HSV-1; experiment: HSV-1 life cycle stage assay (different modes of peptide treatment), qPCR; format: cell-based, herpes simplex virus type 1
Procedure: To determine the exact step at which Protopolybia-MP III blocks HSV-1 infection, we conducted an experiment with different modes of peptide treatment in Vero cells (Figure 3A). […] Then, we detected the protective effect of Protopolybia-MP III by pretreating Vero cells with 20 μg/mL Protopolybia-MP III before HSV-1 infection.
Figure 3 Protopolybia-MP III inhibits multiple phases of the HSV-1 life cycle. (A) Schematic diagram for studying stage at which Protopolybia-MP III acts on the HSV-1 life cycle. (B) Effects of Protopolybia-MP III on the attachment, entry/fusion, and post-entry stages of the HSV-1 life cycle. Vero cells were infected with HSV-1 at an MOI of 1 and treated with 20 μg/mL Protopolybia-MP III as described in (A). After 24 h, cells were collected, and intracellular HSV-1 RNA was analyzed by qPCR. (C) The effect of Protopolybia-MP III on cell protection against HSV-1 infection. Vero cells were treated with 20 μg/mL Protopolybia-MP III or PBS and infected with HSV-1 at an MOI of 1 as described in (A). After 24 h, the cells were collected, and intracellular HSV-1 RNA was analyzed by qPCR. ns, no significance. ** p < 0.01. *** p < 0.001.
(§1) Cells were collected and lysed using TRIzol reagent (Beyotime Biotechnology, Shanghai, China) to release the intracellular total RNA, followed by precipitation with isopropanol. The first-strand cDNA was reverse-transcribed by the HiScript III 1st Strand cDNA Synthesis Kit (+gDNA wiper) (Vazyme, Nanjing, China). The cDNA was quantitated by qPCR with primers using Taq Pro Universal SYBR qPCR Master Mix (Vazyme). The HSV-1 primers were 5′-[…]-3′ (sense) and 5′-[…]-3′ (antisense). The monkey GAPDH primers were 5′-[…]-3′ (sense) and 5′-[…]-3′ (antisense). The human GAPDH primers were 5′-[…]-3′ (sense) and 5′-[…]-3′ (antisense). qPCR experiments were performed on a Bio-Rad CFX96 Touch (Pleasanton, CA, USA) according to the manufacturer’s instructions.

[2] = system: HSV-1 virion; experiment: HSV-1 free virion infectivity assay, qPCR; format: cell-based, herpes simplex virus type 1; conditions: then Vero cells infected, 24 h
Procedure: Figure 5 Protopolybia-MP III destroys the integrity of HSV-1 free virions. (A) Schematic diagram for studying the effect of Protopolybia-MP III on HSV-1 free virion infectivity. (B) Effects of Protopolybia-MP III on HSV-1 free virion infectivity at different temperatures. HSV-1 (MOI = 1) and 20 μg/mL Protopolybia-MP III or PBS were coincubated at 4 °C, 22 °C, and 37 °C for 1 h, and then Vero cells were infected as described in (A). After 24 h, cells were collected, and intracellular HSV-1 RNA was analyzed by qPCR. (C) Effects of different concentrations of Protopolybia-MP III on HSV-1 free virion infectivity. HSV-1 (MOI = 1) and 1 or 10 μg/mL Protopolybia-MP III or PBS were coincubated at 37 °C for 1 h, and then Vero cells were infected as described in (A). After 24 h, cells were collected, and intracellular HSV-1 RNA was analyzed by qPCR. (D,E) The effect of Protopolybia-MP III on HSV-1 free virion integrity. HSV-1 and 20 μg/mL Protopolybia-MP III or PBS were coincubated at 37 °C for 1 h. Then, after centrifuging for 2 h at 40,000 rpm at 4 °C, the contents of HSV-1 gB in the supernatant and precipitate were detected by Western blotting (D). In addition, the structure of HSV-1 virions after incubation with Protopolybia-MP III was observed by electron microscopy. The red arrow points to a destroyed HSV-1 virion. *** p < 0.001.
Figure 7 Antiviral activity analysis of Protopolybia-MP III mutants. (A) Amino acid sequences of Protopolybia-MP III mutants. Identical amino acids among Protopolybia-MP I, Protopolybia-MP III, and its mutants are marked in blue, and different amino acids are marked in red. (B) Suppression of Protopolybia-MP I, Protopolybia-MP III, and its mutants on intracellular HSV-1 content. Cells were preincubated with 20 μg/mL peptides or PBS for 1 h and then infected with HSV-1 at an MOI of 1. After 24 h, the cells were collected. Intracellular HSV-1 ICP0 protein levels were analyzed by Western blotting. The ratios of HSV-1 ICP0 to GAPDH were calculated by ImageJ software. (C) Inhibition of HSV-1 free virion infectivity by Protopolybia-MP I, Protopolybia-MP III, and its mutants. HSV-1 (MOI = 1) and 5 μg/mL peptides or PBS were coincubated at 37 °C for 1 h, and the mixtures were then used to infect Vero cells. After 24 h, cells were collected, and intracellular HSV-1 RNA was analyzed by qPCR. ns, no significance. * p < 0.05. ** p < 0.01. *** p < 0.001.
as §1

[3] = Vero cells, 20 μg/mL, HSV-1 MOI 1, 24 h, qPCR of HSV-1 RNA

Substance: INWLKLGKAVIDAL-NH2 [Protopolybia-MP III]
- protection of cells from HSV-1 infection (pretreatment) ([1]; Vero cells pretreated with 20 μg/mL before HSV-1 infection, MOI 1, 24 h, qPCR): almost no effect
- inhibitory rate, attachment stage of the HSV-1 life cycle [1, 3]: 57%
- inhibitory rate, entry/fusion stage of the HSV-1 life cycle [1, 3]: 84%
- inhibitory rate, post-entry stage of the HSV-1 life cycle [1, 3]: 66%
- HSV-1 virions inactivated ([2]; 1 μg/mL coincubated with HSV-1 (MOI 1) at 37 °C for 1 h): 51%
- HSV-1 virions inactivated ([2]; 10 μg/mL coincubated with HSV-1 (MOI 1) at 37 °C for 1 h): 99%
- inhibition rate of HSV-1 virion infectivity ([2]; 20 μg/mL coincubated with HSV-1 (MOI 1) at 4 °C for 1 h): above 99%
- inhibition rate of HSV-1 virion infectivity ([2]; 20 μg/mL coincubated with HSV-1 (MOI 1) at 22 °C for 1 h): above 99%
- inhibition rate of HSV-1 virion infectivity ([2]; 20 μg/mL coincubated with HSV-1 (MOI 1) at 37 °C for 1 h): above 99%
- inhibition rate of HSV-1 free virion infectivity ([2]; mutant comparison (Figure 7C): 5 μg/mL coincubated with HSV-1 (MOI 1) at 37 °C for 1 h): 97.3%
